Measurements taken from patent US20230085307A1, “PYRIDAZINONE COMPOUND AND HERBICIDE” (NISSAN CHEMICAL CORPORATION, priority 2019, published 2023).

Experiments:
green foxtail = test: Test Example 4: herbicidal effect by soil treatment (Table 19, symbol G); format: in vivo, green foxtail (Setaria viridis)
Outline: (§1)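 Pre-emergence style soil spray: seeds under ~1.5 cm sterilized diluvial soil received a uniform coat of emulsion diluted to the predetermined herbicide amount. Greenhouse 25–30° C; readout at week three on previously defined criteria.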

late watergrass [1] = test: Test Example 2: herbicidal activity, application during weed generation under submerged conditions (Table 17, symbol A); format: in vivo, late watergrass (Echinochloa oryzicola); conditions: for herbicidal effect rating, A: late watergrass: application during weed generation, submerged conditions
Outline: (§2)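 Herbicide emulsion, diluted with water to the chosen amount, is applied onto 4 cm floodwater over alluvial soil where the weeds were co-sown and raised at 25–30° C. Application timing: 1–2 leaves. Assessment: three weeks afterwards.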

barnyard grass [2] = test: Test Example 3: herbicidal effect by foliage application, Wagner pot (Table 18, symbol H); format: in vivo, barnyard grass (Echinochloa crus-galli)
Outline: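 Plants were sown in alluvial soil held under 0.1–0.5 cm standing water and grown 14 days in a greenhouse at 25–30 °C. An emulsifiable formulation, water-diluted to the set dose, was then sprayed onto the foliage, and effects were scored three weeks later using previously defined criteria.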

Italian ryegrass [3] = test: Test Example 5: herbicidal effect by foliage application, plastic box (Table 20, symbol K); format: in vivo, Italian ryegrass (Lolium multiflorum); conditions: foliage application; for K: Italian ryegrass, herbicidal effect grade: three weeks after application
Outline: (§3)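 Plants were sown into sterilized diluvial soil under about 1.5 cm cover and kept in a greenhouse at 25° C. to 30° C. Fourteen days on, foliage received an even spray of the diluted emulsion. Herbicidal or crop effect was judged three weeks afterwards.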

wild oat [4] = test: Test Example 4: herbicidal effect by soil treatment (Table 19, symbol I); format: in vivo, wild oat (Avena fatua)
Outline: as §1

barnyard grass [5] = test: Test Example 4: herbicidal effect by soil treatment (Table 19, symbol H); format: in vivo, barnyard grass (Echinochloa crus-galli)
Outline: as §1

blackgrass [6] = test: Test Example 5: herbicidal effect by foliage application, plastic box (Table 20, symbol J); format: in vivo, blackgrass (Alopecurus myosuroides); conditions: foliage application; for J: blackgrass, herbicidal effect grade: three weeks after application
Outline: as §3

blackgrass [7] = test: Test Example 4: herbicidal effect by soil treatment (Table 19, symbol J); format: in vivo, blackgrass (Alopecurus myosuroides)
Outline: as §1

chickweed = test: Test Example 4: herbicidal effect by soil treatment (Table 19, symbol P); format: in vivo, common chickweed (Stellaria media)
Outline: as §1

wild oat [8] = test: Test Example 5: herbicidal effect by foliage application, plastic box (Table 20, symbol I); format: in vivo, wild oat (Avena fatua); conditions: foliage application; for I: wild oat, herbicidal effect grade: three weeks after application
Outline: as §3

Japanese bulrush [9] = test: Test Example 2: herbicidal activity, application during weed generation under submerged conditions (Table 17, symbol B); format: in vivo, Japanese bulrush (Schoenoplectus juncoides); conditions: for herbicidal effect rating, B: Japanese bulrush: application during weed generation, submerged conditions
Outline: as §2

late watergrass [10] = test: Test Example 1: herbicidal activity, application before weed generation under submerged conditions (Table 16, symbol A); format: in vivo, late watergrass (Echinochloa oryzicola)
Outline: (§4)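 Submerged Wagner pots (alluvial soil, 4 cm water) sown with weed seeds and planted with 2.5-leaf rice seedlings; emulsifiable concentrate diluted in water applied to water surface on sowing day. Held in greenhouse at 25-30 °C; injury scored 0-5 by herbicidal rate after three weeks.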

persian speedwell = test: Test Example 4: herbicidal effect by soil treatment (Table 19, symbol R); format: in vivo, Persian speedwell (Veronica persica)
Outline: as §1

velvetleaf = test: Test Example 5: herbicidal effect by foliage application, plastic box (Table 20, symbol M); format: in vivo, velvetleaf (Abutilon theophrasti); conditions: foliage application; for M: velvetleaf, herbicidal effect grade: three weeks after application
Outline: as §3

Japanese bulrush [11] = test: Test Example 1: herbicidal activity, application before weed generation under submerged conditions (Table 16, symbol B); format: in vivo, Japanese bulrush (Schoenoplectus juncoides)
Outline: as §4

Italian ryegrass [12] = test: Test Example 4: herbicidal effect by soil treatment (Table 19, symbol K); format: in vivo, Italian ryegrass (Lolium multiflorum)
Outline: as §1

redroot pigweed = test: Test Example 5: herbicidal effect by foliage application, plastic box (Table 20, symbol N); format: in vivo, redroot pigweed (Amaranthus retroflexus); conditions: foliage application; for N: redroot pigweed, herbicidal effect grade: three weeks after application
Outline: as §3

[13] = amount of applied herbicide 310 g/ha
[14] = amount of applied herbicide 320 g/ha
[15] = application during weed generation under submerged conditions, amount of applied herbicide 320 g/ha
[16] = 320 g/ha, evaluated 3 weeks after application

CCCC(=O)Oc1c(C)nn(C)c(=O)c1-c1c(-c2ccccc2OC)sc2cc(OCC)ccc12 [3-090]
G: green foxtail, herbicidal effect grade (green foxtail; [13]): 3 (Herbicidal rate of 40% or more and less than 70%)
herbicidal effect rating, A: late watergrass (late watergrass [1]; AAH 310 g/ha): 4 (Herbicidal rate of 70% or more and less than 90%)
herbicidal effect on barnyard grass (H) (barnyard grass [2]; 310 g/ha): 5 (Herbicidal rate of 90% or more (almost completely withered))
K: Italian ryegrass, herbicidal effect grade (Italian ryegrass [3]; 310 g/ha): 5 (Herbicidal rate of 90% or more (almost completely withered))
I: wild oat, herbicidal effect grade (wild oat [4]; [13]): 0 (Herbicidal rate of 5% or less (almost no effect))
H: barnyard grass, herbicidal effect grade (barnyard grass [5]; [13]): 2 (Herbicidal rate of 20% or more and less than 40%)
J: blackgrass, herbicidal effect grade (blackgrass [6]; 310 g/ha): 4 (Herbicidal rate of 70% or more and less than 90%)
J: blackgrass, herbicidal effect grade (blackgrass [7]; [13]): 4 (Herbicidal rate of 70% or more and less than 90%)
P: chickweed, herbicidal effect grade (chickweed; [13]): 4 (Herbicidal rate of 70% or more and less than 90%)
I: wild oat, herbicidal effect grade (wild oat [8]; 310 g/ha): 4 (Herbicidal rate of 70% or more and less than 90%)
herbicidal effect rating, B: Japanese bulrush (Japanese bulrush [9]; AAH 310 g/ha): 4 (Herbicidal rate of 70% or more and less than 90%)
Herbicidal effect, A: late watergrass (late watergrass [10]; [13]): 5 (Herbicidal rate of 90% or more (almost completely withered))
R: persian speedwell, herbicidal effect grade (persian speedwell; [13]): 5 (Herbicidal rate of 90% or more (almost completely withered))
M: velvetleaf, herbicidal effect grade (velvetleaf; 310 g/ha): 5 (Herbicidal rate of 90% or more (almost completely withered))
Herbicidal effect, B: Japanese bulrush (Japanese bulrush [11]; [13]): 5 (Herbicidal rate of 90% or more (almost completely withered))
K: Italian ryegrass, herbicidal effect grade (Italian ryegrass [12]; [13]): 4 (Herbicidal rate of 70% or more and less than 90%)
N: redroot pigweed, herbicidal effect grade (redroot pigweed; 310 g/ha): 5 (Herbicidal rate of 90% or more (almost completely withered))

CCSc1ccc(-c2oc3ccc(C)cc3c2-c2c(O)c(C)nn(C)c2=O)cc1 [9-057]
G: green foxtail, herbicidal effect grade (green foxtail; [14]): 5 (Herbicidal rate of 90% or more (almost completely withered))
herbicidal effect grade, A: late watergrass (late watergrass [1]; [15]): 5 (Herbicidal rate of 90% or more (almost completely withered))
Herbicidal effect on H (barnyard grass), foliage application (barnyard grass [2]; [14]): 5 (Herbicidal rate of 90% or more (almost completely withered))
K (Italian ryegrass) herbicidal effect grade (Italian ryegrass [3]; [16]): 5 (Herbicidal rate of 90% or more (almost completely withered))
I: wild oat, herbicidal effect grade (wild oat [4]; [14]): 0 (Herbicidal rate of 5% or less (almost no effect))
H: barnyard grass, herbicidal effect grade (barnyard grass [5]; [14]): 3 (Herbicidal rate of 40% or more and less than 70%)
J (blackgrass) herbicidal effect grade (blackgrass [6]; [16]): 5 (Herbicidal rate of 90% or more (almost completely withered))
J: blackgrass, herbicidal effect grade (blackgrass [7]; [14]): 0 (Herbicidal rate of 5% or less (almost no effect))
P: chickweed, herbicidal effect grade (chickweed; [14]): 5 (Herbicidal rate of 90% or more (almost completely withered))
I (wild oat) herbicidal effect grade (wild oat [8]; [16]): 3 (Herbicidal rate of 40% or more and less than 70%)
herbicidal effect grade, B: Japanese bulrush (Japanese bulrush [9]; [15]): 3 (Herbicidal rate of 40% or more and less than 70%)
Herbicidal effect, A: late watergrass (late watergrass [10]; [14]): 5 (Herbicidal rate of 90% or more (almost completely withered))
R: persian speedwell, herbicidal effect grade (persian speedwell; [14]): 5 (Herbicidal rate of 90% or more (almost completely withered))
M (velvetleaf) herbicidal effect grade (velvetleaf; [16]): 5 (Herbicidal rate of 90% or more (almost completely withered))
Herbicidal effect, B: Japanese bulrush (Japanese bulrush [11]; [14]): 4 (Herbicidal rate of 70% or more and less than 90%)
K: Italian ryegrass, herbicidal effect grade (Italian ryegrass [12]; [14]): 5 (Herbicidal rate of 90% or more (almost completely withered))
N (redroot pigweed) herbicidal effect grade (redroot pigweed; [16]): 5 (Herbicidal rate of 90% or more (almost completely withered))

COCCOc1ccc2c(-c3c(O)c(C)nn(C)c3=O)c(-c3ccccc3OC)sc2c1 [3-121]
G: green foxtail, herbicidal effect grade (green foxtail; [14]): 5 (Herbicidal rate of 90% or more (almost completely withered))
herbicidal effect rating, A: late watergrass (late watergrass [1]; AAH 320 g/ha): 3 (Herbicidal rate of 40% or more and less than 70%)
herbicidal effect on barnyard grass (H) (barnyard grass [2]; 320 g/ha): 5 (Herbicidal rate of 90% or more (almost completely withered))
K: Italian ryegrass, herbicidal effect grade (Italian ryegrass [3]; 320 g/ha): 5 (Herbicidal rate of 90% or more (almost completely withered))
I: wild oat, herbicidal effect grade (wild oat [4]; [14]): 3 (Herbicidal rate of 40% or more and less than 70%)
H: barnyard grass, herbicidal effect grade (barnyard grass [5]; [14]): 5 (Herbicidal rate of 90% or more (almost completely withered))
J: blackgrass, herbicidal effect grade (blackgrass [6]; 320 g/ha): 5 (Herbicidal rate of 90% or more (almost completely withered))
J: blackgrass, herbicidal effect grade (blackgrass [7]; [14]): 5 (Herbicidal rate of 90% or more (almost completely withered))
P: chickweed, herbicidal effect grade (chickweed; [14]): 5 (Herbicidal rate of 90% or more (almost completely withered))
I: wild oat, herbicidal effect grade (wild oat [8]; 320 g/ha): 5 (Herbicidal rate of 90% or more (almost completely withered))
herbicidal effect rating, B: Japanese bulrush (Japanese bulrush [9]; AAH 320 g/ha): 3 (Herbicidal rate of 40% or more and less than 70%)
Herbicidal effect, A: late watergrass (late watergrass [10]; [14]): 5 (Herbicidal rate of 90% or more (almost completely withered))
R: persian speedwell, herbicidal effect grade (persian speedwell; [14]): 5 (Herbicidal rate of 90% or more (almost completely withered))
M: velvetleaf, herbicidal effect grade (velvetleaf; 320 g/ha): 5 (Herbicidal rate of 90% or more (almost completely withered))
Herbicidal effect, B: Japanese bulrush (Japanese bulrush [11]; [14]): 5 (Herbicidal rate of 90% or more (almost completely withered))
K: Italian ryegrass, herbicidal effect grade (Italian ryegrass [12]; [14]): 5 (Herbicidal rate of 90% or more (almost completely withered))
N: redroot pigweed, herbicidal effect grade (redroot pigweed; 320 g/ha): 5 (Herbicidal rate of 90% or more (almost completely withered))

CCCC(=O)Oc1c(C)nn(C)c(=O)c1-c1c(-c2ccc(OC)cc2)sc2cc(OC)ccc12 [3-069]
G: green foxtail, herbicidal effect grade (green foxtail; [14]): 2 (Herbicidal rate of 20% or more and less than 40%)
herbicidal effect rating, A: late watergrass (late watergrass [1]; AAH 320 g/ha): 0 (Herbicidal rate of 5% or less (almost no effect))
herbicidal effect on barnyard grass (H) (barnyard grass [2]; 320 g/ha): 0 (Herbicidal rate of 5% or less (almost no effect))
K: Italian ryegrass, herbicidal effect grade (Italian ryegrass [3]; 320 g/ha): 3 (Herbicidal rate of 40% or more and less than 70%)
I: wild oat, herbicidal effect grade (wild oat [4]; [14]): 0 (Herbicidal rate of 5% or less (almost no effect))
H: barnyard grass, herbicidal effect grade (barnyard grass [5]; [14]): 0 (Herbicidal rate of 5% or less (almost no effect))
J: blackgrass, herbicidal effect grade (blackgrass [6]; 320 g/ha): 0 (Herbicidal rate of 5% or less (almost no effect))
J: blackgrass, herbicidal effect grade (blackgrass [7]; [14]): 0 (Herbicidal rate of 5% or less (almost no effect))
P: chickweed, herbicidal effect grade (chickweed; [14]): 3 (Herbicidal rate of 40% or more and less than 70%)
I: wild oat, herbicidal effect grade (wild oat [8]; 320 g/ha): 0 (Herbicidal rate of 5% or less (almost no effect))
herbicidal effect rating, B: Japanese bulrush (Japanese bulrush [9]; AAH 320 g/ha): 3 (Herbicidal rate of 40% or more and less than 70%)
Herbicidal effect, A: late watergrass (late watergrass [10]; [14]): 0 (Herbicidal rate of 5% or less (almost no effect))
R: persian speedwell, herbicidal effect grade (persian speedwell; [14]): 4 (Herbicidal rate of 70% or more and less than 90%)
M: velvetleaf, herbicidal effect grade (velvetleaf; 320 g/ha): 5 (Herbicidal rate of 90% or more (almost completely withered))
Herbicidal effect, B: Japanese bulrush (Japanese bulrush [11]; [14]): 3 (Herbicidal rate of 40% or more and less than 70%)
K: Italian ryegrass, herbicidal effect grade (Italian ryegrass [12]; [14]): 0 (Herbicidal rate of 5% or less (almost no effect))
N: redroot pigweed, herbicidal effect grade (redroot pigweed; 320 g/ha): 5 (Herbicidal rate of 90% or more (almost completely withered))
